The nature of this data set: Hydroxyapatite assay (hydroxyapatite adsorption chromatography, bone-targeting potential). Format: physicochemical. To be noted: corrected retention K=(retention time−void time)/void on TSK-Gel HA 1000 column; linear gradient 10 mM to 500 mM sodium phosphate, 0.15 N NaCl, pH 6.8. The method, then: Hydroxyapatite is the principal mineral component of bone. Hydroxyapatite adsorption chromatography is used as an assay to evaluate the bone-targeting potential of both individual bone-targeting moieties (“monomers”) and of pharmaceuticals incorporating bone-targeting groups.
Method: The rentention time of a test compound is measured using a linear gradient from 10 mM sodium phosphate, 0.15 N NaCl, pH=6.8 to 500 mM sodium phosphate, 0.15 N NaCl, […] on a TSK-Gel HA 1000 high pressure liquid chromatography column (7.5 mm×75 mm). […] This K value is corrected using two reference compounds to correct from inter-column and inter-system variation to obtain a K′ value.
Reference Compounds: K′ values were determined for known bone targeted compounds, the bisphosphonate, alendronate and tetracycline.

As for `NCCCC(O)(P(=O)(O)O)P(=O)(O)O` [Alendronate, alendronate], the “K′ value” was determined as 3.7.

Source of the values: US6706699B2, “Quinolines and uses thereof” (Ariad Pharmaceuticals, Inc., priority 2001, dated 2004).
